Experiments:
FLT3 = target: T1, FLT3 (Homo sapiens, UniProt P36888); test: In vitro kinase activity assay (PKLight), FLT3; type: biochemical; conditions: recombinant FLT3, poly(Glu,Tyr) substrate, 4 μM ATP
T1 construct: purchased Invitrogen PV3182
T1 sequence (P36888 27-993): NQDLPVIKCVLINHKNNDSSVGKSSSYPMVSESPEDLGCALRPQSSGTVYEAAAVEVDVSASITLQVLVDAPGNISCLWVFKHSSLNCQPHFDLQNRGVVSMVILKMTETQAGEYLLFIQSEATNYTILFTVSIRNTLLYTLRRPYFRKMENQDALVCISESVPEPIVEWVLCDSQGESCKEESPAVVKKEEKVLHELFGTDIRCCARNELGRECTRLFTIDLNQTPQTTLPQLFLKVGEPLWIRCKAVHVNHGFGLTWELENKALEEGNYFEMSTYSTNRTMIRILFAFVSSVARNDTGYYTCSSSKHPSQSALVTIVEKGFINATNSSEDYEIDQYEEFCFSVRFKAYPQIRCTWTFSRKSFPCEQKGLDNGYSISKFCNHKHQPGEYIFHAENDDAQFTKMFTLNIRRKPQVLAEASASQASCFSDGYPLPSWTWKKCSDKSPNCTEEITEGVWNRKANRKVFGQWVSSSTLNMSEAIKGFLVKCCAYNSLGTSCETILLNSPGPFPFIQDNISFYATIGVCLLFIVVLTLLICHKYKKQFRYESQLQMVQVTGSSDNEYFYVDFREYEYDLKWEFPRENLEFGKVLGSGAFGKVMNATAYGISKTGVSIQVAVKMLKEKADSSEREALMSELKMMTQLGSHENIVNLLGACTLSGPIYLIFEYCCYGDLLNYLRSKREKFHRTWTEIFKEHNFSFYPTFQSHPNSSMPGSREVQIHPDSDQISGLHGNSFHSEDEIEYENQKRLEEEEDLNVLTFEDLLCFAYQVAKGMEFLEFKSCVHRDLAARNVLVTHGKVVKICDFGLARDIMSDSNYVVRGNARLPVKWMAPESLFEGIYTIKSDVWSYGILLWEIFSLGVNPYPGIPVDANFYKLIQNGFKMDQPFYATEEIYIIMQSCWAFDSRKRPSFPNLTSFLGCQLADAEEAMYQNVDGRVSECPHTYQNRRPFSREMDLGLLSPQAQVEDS
Method: The recombinant enzymes (CDK2/CyclinA, FLT3, JAK2 and JAK2 V617F) were purchased from Invitrogen (Cat # PV3267, 3182, 4210 and 4347 respectively). All assays were carried out in 384-well white microtiter plates using the PKLight assay system from Cambrex (East rutherford, N.J.). This assay platform is essentially a luminometdc assay for the detection of ATP in the reaction using a luciferase-coupled reaction. For CDK2/Cyclin A assay, the reaction mixture consisted of the following components in 25 μL assay buffer (50 mM Hepes pH 7.5, 10 mM MgCl2, 5 mM MnCl2, 5 mM BGP, 1 mM DTT, 0.1 mM sodium orthovanadate), 1.4 μg/mL of CDK2/Cyclin A complex, 0.5 μM of RbING substrate (Invitrogen, Cat # PV2939) and 0.5 μM of ATP. The compounds were tested at 8 concentrations prepared from 4-fold serial dilution starting at 10 μM. The reaction was incubated at room temperature for 2 hr. 13 μL of PKLight ATP detection reagent was added and the reaction was incubated for 10 min. Luminescence signals were detected on a multi-label plate reader (Victor^2 V 1420, Perkin-Elmer). The other kinase assays were identical except for the following differences in reagents. For FLT3 assays, the reaction contained 2.0 μg/mL FLT3 enzyme, 5 μM of poly(Glu,Tyr) substrate (Sigma, Cat # P0275) and 4 μM of ATP. For JAK2 assays, the reaction contained 0.6 μg/mL of JAK2 enzyme, 2 μM of poly(Glu,Ala,Tyr) substrate (Sigma, Cat # P3899) and 0.2 μM of ATP. For JAK2 V617F mutant assays, the reaction contained 8.0 μg/mL of JAK2 mutant enzyme, 2 μM of poly(Glu,Ala,Tyr) substrate (Sigma, Cat # P3899) and 0.2 μM of ATP. The analytical software, Prism 4.0 (GraphPad Software Pte Ltd) was used to generate IC50 values from the data. […] IC50 values are shown below in Table 3.

[1] = tested on: DU145 (metastatic prostate cancer cell line); test: Cell-based proliferation assay, DU145; conditions: Homo sapiens, DU-145; DU145 cells, 96 h treatment
Method: (§1) Human cancer cell lines HL60 (acute myeloid leukemia cell line), Colo205 (colon adenocarcinoma cell line), HEL92.1.7 (erythroleukemia cell line), MV4-11 (acute myeloid leukemia cell line) and DU145 (metastatic prostate cancer cell line) were obtained from ATCC. They were cultivated in the media according to the ATCC work instructions. Colo205 and DU145 cells were seeded in 96-wells plate 5000 cells per cell and 1000 cells per well respectively. HEL92.1.7 and MV4-11 cells were seeded at 6000 cells per well while HL60 cells were seeded at 8000 cells per well in 96 well plate. The plates were incubated at 37° C., 5% CO2, for 24 h. Cells were treated with compounds at various concentrations for 96 h. Cell growth was then monitored using Celltiter96 Aqueous One Solution Cell Proliferation Assay from Promega (Madison Wis.). Dose response curves were plotted to determine GI50 values for the compounds using XL-fit (ID Business Solution, Emeryville, Calif.).

JAK2 = target: T2, JAK2 (Homo sapiens, UniProt O60674); test: In vitro kinase activity assay (PKLight), JAK2; type: biochemical; conditions: recombinant JAK2, poly(Glu,Ala,Tyr) substrate, 0.2 μM ATP
T2 construct: purchased Invitrogen PV4210
T2 sequence (O60674 whole entry): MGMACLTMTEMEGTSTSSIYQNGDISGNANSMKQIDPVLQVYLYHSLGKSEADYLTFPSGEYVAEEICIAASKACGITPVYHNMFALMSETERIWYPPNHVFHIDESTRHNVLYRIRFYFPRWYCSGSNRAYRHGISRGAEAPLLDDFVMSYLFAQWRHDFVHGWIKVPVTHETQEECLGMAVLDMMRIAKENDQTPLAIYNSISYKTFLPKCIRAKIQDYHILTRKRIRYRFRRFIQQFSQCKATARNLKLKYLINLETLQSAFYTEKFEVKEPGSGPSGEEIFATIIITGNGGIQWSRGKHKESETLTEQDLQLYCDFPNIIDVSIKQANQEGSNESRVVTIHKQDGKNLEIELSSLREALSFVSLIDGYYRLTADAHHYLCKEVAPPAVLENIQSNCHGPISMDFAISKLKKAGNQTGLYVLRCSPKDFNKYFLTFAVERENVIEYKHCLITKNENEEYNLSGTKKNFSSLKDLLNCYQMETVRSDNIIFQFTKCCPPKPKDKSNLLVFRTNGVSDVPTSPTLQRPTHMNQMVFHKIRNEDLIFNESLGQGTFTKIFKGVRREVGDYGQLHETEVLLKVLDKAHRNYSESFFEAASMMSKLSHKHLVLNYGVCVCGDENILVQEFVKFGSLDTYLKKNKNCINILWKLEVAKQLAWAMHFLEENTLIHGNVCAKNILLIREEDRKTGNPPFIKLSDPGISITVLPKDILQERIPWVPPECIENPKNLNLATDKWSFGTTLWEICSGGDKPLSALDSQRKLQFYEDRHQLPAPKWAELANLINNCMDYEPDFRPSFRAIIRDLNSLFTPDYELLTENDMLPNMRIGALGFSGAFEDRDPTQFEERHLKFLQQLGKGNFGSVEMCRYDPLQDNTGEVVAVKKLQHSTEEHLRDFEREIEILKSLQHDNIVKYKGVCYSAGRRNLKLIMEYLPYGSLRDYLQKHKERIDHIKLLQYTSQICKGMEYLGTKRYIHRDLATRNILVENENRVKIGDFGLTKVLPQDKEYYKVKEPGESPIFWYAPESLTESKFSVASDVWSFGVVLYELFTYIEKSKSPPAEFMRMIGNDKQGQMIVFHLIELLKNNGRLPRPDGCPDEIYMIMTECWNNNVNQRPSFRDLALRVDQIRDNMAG
Method: (§2) All assays were carried out in 384-well white microtiter plates using the PKLight assay system from Cambrex (East rutherford, N.J.). This assay platform is essentially a luminometdc assay for the detection of ATP in the reaction using a luciferase-coupled reaction. For CDK2/Cyclin A assay, the reaction mixture consisted of the following components in 25 μL assay buffer (50 mM Hepes pH 7.5, 10 mM MgCl2, 5 mM MnCl2, 5 mM BGP, 1 mM DTT, 0.1 mM sodium orthovanadate), 1.4 μg/mL of CDK2/Cyclin A complex, 0.5 μM of RbING substrate (Invitrogen, Cat # PV2939) and 0.5 μM of ATP. The compounds were tested at 8 concentrations prepared from 4-fold serial dilution starting at 10 μM. The reaction was incubated at room temperature for 2 hr. 13 μL of PKLight ATP detection reagent was added and the reaction was incubated for 10 min. Luminescence signals were detected on a multi-label plate reader (Victor^2 V 1420, Perkin-Elmer). The other kinase assays were identical except for the following differences in reagents. For FLT3 assays, the reaction contained 2.0 μg/mL FLT3 enzyme, 5 μM of poly(Glu,Tyr) substrate (Sigma, Cat # P0275) and 4 μM of ATP. For JAK2 assays, the reaction contained 0.6 μg/mL of JAK2 enzyme, 2 μM of poly(Glu,Ala,Tyr) substrate (Sigma, Cat # P3899) and 0.2 μM of ATP. […] The analytical software, Prism 4.0 (GraphPad Software Pte Ltd) was used to generate IC50 values from the data.

[2] = tested on: HL60 (acute myeloid leukemia cell line); test: Cell-based proliferation assay, HL60; conditions: Homo sapiens, HL-60; HL60 cells, 96 h treatment
Method: as §1

CDK2/CyclinA = target: T3, CDK2/CyclinA (Homo sapiens, UniProt P24941); test: In vitro kinase activity assay (PKLight), CDK2/Cyclin A; type: biochemical; conditions: recombinant CDK2/Cyclin A, RbING substrate, 0.5 μM ATP, 2 hr
T3 construct: purchased Invitrogen PV3267
Method: as §2

[3] = tested on: MV4-11 (acute myeloid leukemia cell line); test: Cell-based proliferation assay, MV4-11; conditions: Homo sapiens; MV4-11 cells, 96 h treatment
Method: as §1

[4] = tested on: Colo205 (colon adenocarcinoma cell line); test: Cell-based proliferation assay, Colo205; conditions: Homo sapiens, COLO 205; Colo205 cells, 96 h treatment
Method: as §1

[5] = tested on: HEL92.1.7 (erythroleukemia cell line); test: Cell-based proliferation assay, HEL92.1.7; conditions: Homo sapiens, HEL 92.1.7; HEL92.1.7 cells, 96 h treatment
Method: as §1

JAK2 V617F = target: T4, JAK2 V617F (Homo sapiens, UniProt O60674, V617F); test: In vitro kinase activity assay (PKLight), JAK2 V617F mutant; type: biochemical; conditions: recombinant JAK2 V617F mutant, poly(Glu,Ala,Tyr) substrate, 0.2 μM ATP
T4 construct: purchased Invitrogen PV4347
T4 sequence (O60674 whole entry V617F): as the sequence (O60674 whole entry) above, with V617F counted along it
Method: as §2

Row | IC50 (FLT3) | GI50 [1] | IC50 (JAK2) | GI50 [2] | IC50 (CDK2/CyclinA) | GI50 [3] | GI50 [4] | GI50 [5] | IC50 (JAK2 V617F) | SMILES
1 | > 5000 nM | > 5000 nM | > 5000 nM | > 5000 nM | 1000 to 5000 nM | 1000 to 5000 nM | > 5000 nM | > 5000 nM | – | O=C1CC/C=C/COCc2cccc(c2)Nc2nccc(n2)-c2cccc(c2)N1 [Compound 4]
2 | ≤ 1000 nM | – | ≤ 1000 nM | ≤ 1000 nM | ≤ 1000 nM | > 5000 nM | ≤ 1000 nM | – | – | CN1C/C=C/CCOc2cccc(c2)-c2ccnc(n2)Nc2ccc(OCCN3CCOCC3)c(c2)C1 [Compound 13]
3 | 1000 to 5000 nM | – | > 5000 nM | > 5000 nM | 1000 to 5000 nM | 1000 to 5000 nM | > 5000 nM | > 5000 nM | – | CN1C/C=C/CC(=O)Nc2cccc(c2)-c2ccnc(n2)Nc2cccc(c2)C1 [Compound 14]
4 | ≤ 1000 nM | – | ≤ 1000 nM | ≤ 1000 nM | ≤ 1000 nM | – | ≤ 1000 nM | – | ≤ 1000 nM | CN1Cc2cccc(c2)Nc2nccc(n2)-c2cccc(c2)OCCC2CC2C1 (stereo not shown) [Compound 20]
5 | ≤ 1000 nM | – | – | – | ≤ 1000 nM | – | – | – | – | C1=C/CNCc2cccc(c2)Nc2nccc(n2)-c2cccc(c2)OCC/1 [Compound 22]
6 | ≤ 1000 nM | – | ≤ 1000 nM | – | ≤ 1000 nM | – | – | – | – | C1=C/CN(C2CC2)Cc2cccc(c2)Nc2nccc(n2)-c2cccc(c2)OCC/1 [Compound 25]
7 | ≤ 1000 nM | 1000 to 5000 nM | ≤ 1000 nM | ≤ 1000 nM | ≤ 1000 nM | ≤ 1000 nM | 1000 to 5000 nM | ≤ 1000 nM | – | Cc1cnc2nc1-c1cccc(c1)OCC/C=C/CN(C)Cc1cccc(c1)N2 [Compound 27]
8 | ≤ 1000 nM | – | – | – | ≤ 1000 nM | – | – | – | – | C1=C\CNCc2cccc(c2)Nc2nccc(n2)-c2cccc(c2)OCC/1 [Compound 29]
9 | ≤ 1000 nM | ≤ 1000 nM | ≤ 1000 nM | ≤ 1000 nM | ≤ 1000 nM | ≤ 1000 nM | ≤ 1000 nM | ≤ 1000 nM | – | CN1C/C=C/CCOc2cc(F)cc(c2)-c2ccnc(n2)Nc2cccc(c2)C1 [Compound 35]
10 | ≤ 1000 nM | – | ≤ 1000 nM | ≤ 1000 nM | ≤ 1000 nM | – | 1000 to 5000 nM | – | – | CN1C/C=C/CCOc2cc(ccc2N)-c2ccnc(n2)Nc2cccc(c2)C1 [Compound 38]
11 | ≤ 1000 nM | – | ≤ 1000 nM | ≤ 1000 nM | ≤ 1000 nM | ≤ 1000 nM | – | ≤ 1000 nM | ≤ 1000 nM | CN1C/C=C/CCOc2cccc(c2)-c2ccnc(n2)Nc2ccc(N3CCOCC3)c(c2)C1 [Compound 39]
12 | > 5000 nM | – | > 5000 nM | 1000 to 5000 nM | 1000 to 5000 nM | 1000 to 5000 nM | – | 1000 to 5000 nM | – | CN1C/C=C/CCOc2cccc(c2)-c2ccnc(n2)Nc2cc(ccn2)C1 [Compound 44]
13 | ≤ 1000 nM | – | ≤ 1000 nM | ≤ 1000 nM | ≤ 1000 nM | ≤ 1000 nM | – | ≤ 1000 nM | – | CN1C/C=C/CCOc2cccc(c2)-c2ccnc(n2)Nc2ccc(OCCN3CCCCC3)c(c2)C1 [Compound 46]
14 | ≤ 1000 nM | – | ≤ 1000 nM | ≤ 1000 nM | ≤ 1000 nM | ≤ 1000 nM | – | ≤ 1000 nM | – | CN1C/C=C/CCOc2cccc(c2)-c2ccnc(n2)Nc2ccc(OCCn3cncn3)c(c2)C1 [Compound 61]
15 | ≤ 1000 nM | – | ≤ 1000 nM | ≤ 1000 nM | ≤ 1000 nM | ≤ 1000 nM | 1000 to 5000 nM | 1000 to 5000 nM | – | CN1C/C=C/COCC2=CC=C(O2)c2ccnc(n2)Nc2cccc(c2)C1 [Compound 62]
16 | ≤ 1000 nM | – | ≤ 1000 nM | ≤ 1000 nM | ≤ 1000 nM | ≤ 1000 nM | ≤ 1000 nM | ≤ 1000 nM | – | CCS(=O)(=O)CCOc1ccc2cc1CN(C)C/C=C/CCOc1cccc(c1)-c1ccnc(n1)N2 [Compound 70]
17 | ≤ 1000 nM | – | ≤ 1000 nM | ≤ 1000 nM | ≤ 1000 nM | ≤ 1000 nM | – | ≤ 1000 nM | – | CN1C/C=C/COCC2=CC=C(S2)c2ccnc(n2)Nc2ccc(OCCN3CCCC3)c(c2)C1 [Compound 74]
18 | ≤ 1000 nM | – | ≤ 1000 nM | ≤ 1000 nM | ≤ 1000 nM | ≤ 1000 nM | – | ≤ 1000 nM | – | CN1C/C=C/CCOc2cccc(c2)-c2ccnc(n2)Nc2cc(N)cc(c2)C1 [Compound 81]

— patent publication US8143255B2, “Heteroalkyl linked pyrimidine derivatives” (S*BIO Pte Ltd., priority 2005, dated 2012)
